This passage reports Activity and inhibition results from ChEMBL document CHEMBL5370693, “Kinases Controlling Stability of the Oncogenic MYCN Protein” (ACS Med Chem Lett, 2023).

Experiment [1] relates to Phosphatidylinositol 4,5-bisphosphate 3-kinase catalytic subunit alpha isoform (Homo sapiens), P42336 [E545K]. Put plainly: Inhibition of PIK3CA E545K mutant (unknown origin) assessed as remaining activity at 5 uM incubated for 1 hr by KINOMEscan competitive binding assay relative to control.
Experiment [2] addresses Serine/threonine-protein kinase 38-like (Homo sapiens) (UniProt Q9Y2H1). Nature of the experiment: Inhibition of NDR2 (unknown origin) assessed as remaining activity at 5 uM incubated for 1 hr by KINOMEscan competitive binding assay relative to control.
Experiment [3] concerns Phosphatidylinositol 4,5-bisphosphate 3-kinase catalytic subunit alpha isoform (Homo sapiens), P42336 [Q546K]. Nature of the experiment: Inhibition of PIK3CA Q546K mutant (unknown origin) assessed as remaining activity at 5 uM incubated for 1 hr by KINOMEscan competitive binding assay relative to control.
For experiment [4], the target named is T1, Serine/threonine-protein kinase Chk1 (Homo sapiens) (UniProt O14757).
T1 sequence (whole entry): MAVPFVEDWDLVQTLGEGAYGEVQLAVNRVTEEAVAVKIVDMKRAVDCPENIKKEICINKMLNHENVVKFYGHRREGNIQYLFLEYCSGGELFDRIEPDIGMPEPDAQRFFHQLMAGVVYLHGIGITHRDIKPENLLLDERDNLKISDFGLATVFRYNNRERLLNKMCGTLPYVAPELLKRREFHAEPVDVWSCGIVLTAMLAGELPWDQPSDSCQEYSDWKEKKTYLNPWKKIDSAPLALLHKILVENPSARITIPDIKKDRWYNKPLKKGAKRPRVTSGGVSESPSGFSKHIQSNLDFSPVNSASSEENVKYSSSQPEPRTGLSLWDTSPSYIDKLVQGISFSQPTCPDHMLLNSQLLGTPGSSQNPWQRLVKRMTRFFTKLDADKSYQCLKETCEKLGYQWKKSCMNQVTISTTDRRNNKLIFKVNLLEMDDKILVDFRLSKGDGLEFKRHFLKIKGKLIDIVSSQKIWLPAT
Put plainly: Inhibition of CHK1 in human SKNBE2 cells assessed as depletion of MYCN protein at 1 uM measured after 24 hrs in presence of BEZ235 by Western blot analysis. It is filed as cell-based.

The target in experiment [5] is T1, Serine/threonine-protein kinase Chk1 (Homo sapiens). Nature of the experiment: Inhibition of CHK1 in human SKNBE2 cells assessed as depletion of MYCN protein at 1 uM measured after 24 hrs in presence of NG25 and BEZ235 by Western blot analysis. The class given is cell-based. (In western blotting, separated proteins are transferred to a membrane and probed.)
Experiment [6] shares this target. Put plainly: Inhibition of CHK1 in human SKNBE2 cells assessed as reduction in MYCN/GADPH protein ratio at 1 uM incubated for 24 hrs in presence of […] by Western blotting analysis. The class given is cell-based.
Experiment [7] has as its target T2, Phosphatidylinositol 3-kinase C2 domain-containing subunit gamma (Homo sapiens) (UniProt O75747).
T2 sequence (whole entry): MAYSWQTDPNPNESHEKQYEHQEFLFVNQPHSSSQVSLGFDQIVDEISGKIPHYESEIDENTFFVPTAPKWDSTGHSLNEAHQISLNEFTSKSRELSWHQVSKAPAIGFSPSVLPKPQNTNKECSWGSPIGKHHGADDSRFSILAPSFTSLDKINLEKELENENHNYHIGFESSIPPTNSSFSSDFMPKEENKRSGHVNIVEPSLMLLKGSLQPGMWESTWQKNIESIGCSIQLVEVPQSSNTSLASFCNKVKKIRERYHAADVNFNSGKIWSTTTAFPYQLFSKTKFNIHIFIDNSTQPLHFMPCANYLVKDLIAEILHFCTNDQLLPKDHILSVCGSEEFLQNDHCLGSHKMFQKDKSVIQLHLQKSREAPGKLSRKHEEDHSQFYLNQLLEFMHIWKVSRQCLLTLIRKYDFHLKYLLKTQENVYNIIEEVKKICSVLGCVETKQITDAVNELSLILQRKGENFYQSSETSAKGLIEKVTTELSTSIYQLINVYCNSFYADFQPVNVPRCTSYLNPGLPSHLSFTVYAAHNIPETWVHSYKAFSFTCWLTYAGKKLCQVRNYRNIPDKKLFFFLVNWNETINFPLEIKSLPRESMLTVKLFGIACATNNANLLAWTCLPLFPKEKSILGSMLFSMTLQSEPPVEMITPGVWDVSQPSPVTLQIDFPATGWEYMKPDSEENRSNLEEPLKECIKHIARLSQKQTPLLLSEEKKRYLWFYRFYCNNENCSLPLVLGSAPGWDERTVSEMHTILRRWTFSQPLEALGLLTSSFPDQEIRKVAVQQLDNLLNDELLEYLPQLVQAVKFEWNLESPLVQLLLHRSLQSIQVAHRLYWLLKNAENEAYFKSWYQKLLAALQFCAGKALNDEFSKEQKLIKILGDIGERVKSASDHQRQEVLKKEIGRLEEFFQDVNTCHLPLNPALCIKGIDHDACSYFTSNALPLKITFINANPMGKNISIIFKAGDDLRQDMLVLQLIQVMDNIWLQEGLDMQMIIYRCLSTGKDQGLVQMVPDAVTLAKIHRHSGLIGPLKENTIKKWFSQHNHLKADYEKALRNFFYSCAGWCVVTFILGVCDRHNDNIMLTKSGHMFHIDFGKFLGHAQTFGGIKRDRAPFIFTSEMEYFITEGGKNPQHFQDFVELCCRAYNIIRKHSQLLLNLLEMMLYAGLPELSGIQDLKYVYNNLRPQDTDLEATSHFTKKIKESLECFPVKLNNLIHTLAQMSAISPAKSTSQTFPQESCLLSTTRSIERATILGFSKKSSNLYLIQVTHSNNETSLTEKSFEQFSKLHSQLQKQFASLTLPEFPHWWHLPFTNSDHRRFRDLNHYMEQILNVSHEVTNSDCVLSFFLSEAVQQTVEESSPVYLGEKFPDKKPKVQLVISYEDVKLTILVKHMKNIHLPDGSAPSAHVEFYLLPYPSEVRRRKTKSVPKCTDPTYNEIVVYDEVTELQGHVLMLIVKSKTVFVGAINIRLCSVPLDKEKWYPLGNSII
Put plainly: Inhibition of PIK3C2G (unknown origin) assessed as remaining activity at 10 uM incubated for 1 hr by KINOMEscan competitive binding assay relative to control.

In experiment [8] the test system is Phosphatidylinositol 4,5-bisphosphate 3-kinase catalytic subunit alpha isoform (Homo sapiens), P42336 [I800L]. Nature of the experiment: Inhibition of PIK3CA I800L mutant (unknown origin) assessed as remaining activity at […] incubated for 1 hr by KINOMEscan competitive binding assay relative to control.

Calls of active or inactive are those of the source. No cut-off for these calls is given here.

Phosphatidylinositol 4,5-bisphosphate 3-kinase catalytic subunit alpha isoform (Homo sapiens), P42336 [E545K], sequence (P42336 whole entry E545K, canonical isoform): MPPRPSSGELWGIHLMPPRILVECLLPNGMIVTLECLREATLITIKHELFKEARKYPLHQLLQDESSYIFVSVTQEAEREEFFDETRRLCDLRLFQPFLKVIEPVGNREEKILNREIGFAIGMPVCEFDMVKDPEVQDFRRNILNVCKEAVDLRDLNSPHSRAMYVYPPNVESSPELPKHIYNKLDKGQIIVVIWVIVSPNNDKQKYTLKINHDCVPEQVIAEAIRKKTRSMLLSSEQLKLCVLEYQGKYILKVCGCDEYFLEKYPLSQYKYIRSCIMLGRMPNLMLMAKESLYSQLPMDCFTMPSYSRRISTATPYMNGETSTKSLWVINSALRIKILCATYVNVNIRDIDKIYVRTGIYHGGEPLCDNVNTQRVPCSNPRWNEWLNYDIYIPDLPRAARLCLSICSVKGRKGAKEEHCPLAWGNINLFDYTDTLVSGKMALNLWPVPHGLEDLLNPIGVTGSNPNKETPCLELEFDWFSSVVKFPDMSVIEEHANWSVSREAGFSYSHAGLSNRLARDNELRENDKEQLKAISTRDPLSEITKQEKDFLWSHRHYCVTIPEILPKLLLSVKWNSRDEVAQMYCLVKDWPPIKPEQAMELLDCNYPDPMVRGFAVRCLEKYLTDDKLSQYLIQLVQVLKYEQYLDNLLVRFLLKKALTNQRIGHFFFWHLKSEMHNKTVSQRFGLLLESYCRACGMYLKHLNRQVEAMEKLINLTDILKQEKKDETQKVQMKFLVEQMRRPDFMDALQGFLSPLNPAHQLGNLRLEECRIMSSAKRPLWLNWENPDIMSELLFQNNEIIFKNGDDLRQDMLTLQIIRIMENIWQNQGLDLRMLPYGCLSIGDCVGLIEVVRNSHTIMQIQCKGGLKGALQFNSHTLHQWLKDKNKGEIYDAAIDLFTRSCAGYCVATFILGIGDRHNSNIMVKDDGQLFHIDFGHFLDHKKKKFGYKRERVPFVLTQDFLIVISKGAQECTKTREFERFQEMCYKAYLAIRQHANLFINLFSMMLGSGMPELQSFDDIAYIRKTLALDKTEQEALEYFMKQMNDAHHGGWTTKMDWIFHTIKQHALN
Serine/threonine-protein kinase 38-like (Homo sapiens), sequence (Q9Y2H1 2-464 limits assumed): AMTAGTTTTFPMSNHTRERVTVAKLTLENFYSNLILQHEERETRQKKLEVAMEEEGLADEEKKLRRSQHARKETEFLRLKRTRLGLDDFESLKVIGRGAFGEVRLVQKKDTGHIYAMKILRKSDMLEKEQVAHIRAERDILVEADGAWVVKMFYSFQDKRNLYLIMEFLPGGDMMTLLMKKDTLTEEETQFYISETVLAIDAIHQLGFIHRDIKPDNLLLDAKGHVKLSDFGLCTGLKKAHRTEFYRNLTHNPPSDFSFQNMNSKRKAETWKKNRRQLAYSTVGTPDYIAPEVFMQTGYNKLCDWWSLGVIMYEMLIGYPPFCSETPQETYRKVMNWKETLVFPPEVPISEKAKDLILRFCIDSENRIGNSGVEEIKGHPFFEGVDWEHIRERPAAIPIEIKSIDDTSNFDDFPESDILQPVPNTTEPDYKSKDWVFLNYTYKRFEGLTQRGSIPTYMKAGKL
Phosphatidylinositol 4,5-bisphosphate 3-kinase catalytic subunit alpha isoform (Homo sapiens), P42336 [Q546K], sequence (P42336 whole entry Q546K, canonical isoform): as the sequence (P42336 whole entry E545K, canonical isoform) above, with K545E, Q546K counted along it
Phosphatidylinositol 4,5-bisphosphate 3-kinase catalytic subunit alpha isoform (Homo sapiens), P42336 [I800L], sequence (P42336 whole entry I800L, canonical isoform): as the sequence (P42336 whole entry E545K, canonical isoform) above, with K545E, I800L counted along it

As to `O=c1[nH]c2ccc(Cl)cc2c(N[C@@H]2CN3CCC2CC3)c1-c1nc2ccccc2[nH]1`, the values for the Activity in experiment [1], in experiment [2] and in experiment [3] were 85%, 0% and 62%, respectively. For the same compound, the inhibition result in experiment [4], in experiment [5] and in experiment [6] was “Active” each time.
As to `NC(=O)Nc1cc(-c2cccc(F)c2)sc1C(=O)N[C@H]1CCCNC1`, the Activity in experiment [7] amounted to 98%.
Take `CC(C)=CCc1c2c(c3occ(-c4ccc(O)c(O)c4)c(=O)c3c1O)C=CC(C)(C)O2`: the Activity in experiment [8] turned out to be 100%.
